Reference: patent US20240083853A1, “HSD17B13 INHIBITORS AND USES THEREOF” (FL2022-001, Inc., priority 2020, published 2024)

Target: T1, Recombinant human HSD17B13 enzyme (Homo sapiens, UniProt Q7Z5P4)
T1 sequence (Q7Z5P4 20-300): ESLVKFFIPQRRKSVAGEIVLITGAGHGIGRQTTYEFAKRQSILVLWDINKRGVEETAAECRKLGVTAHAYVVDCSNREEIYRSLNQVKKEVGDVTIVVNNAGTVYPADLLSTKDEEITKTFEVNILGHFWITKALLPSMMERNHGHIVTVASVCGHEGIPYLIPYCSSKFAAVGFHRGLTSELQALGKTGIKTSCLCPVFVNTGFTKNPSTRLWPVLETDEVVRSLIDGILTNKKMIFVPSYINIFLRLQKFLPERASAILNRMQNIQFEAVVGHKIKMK
Assay: HSD17b13 NAD(P)H-Glo biochemical assay
Settings: for IC50: 50 uM estradiol, 1 mM NAD+, NAD(P)H-Glo luminescence, read-out: HSD17β13 IC50; for inhibition at 10 µM: 3 h, at 10 uM compound, read-out: HSD17β13 % at 10 uM
How it was run: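 Luminescent NAD(P)H-Glo read-out, taken after 1 hour at RT, measured cofactor reduction. Substrate and cofactor were estradiol at 50 uM and NAD+ at 1 mM final, reacted with the recombinant human enzyme for 3 hours at 37° C in 20 mM Tris pH7.4, 0.002% Tween-20, 0.02% BSA. Compound was pre-incubated with enzyme for 20 minutes at RT.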

IC50 [µM] | inhibition at 10 µM [%] | Structure (SMILES)
0.1 to 1 |  | CC1(CO)CCN(c2ccc(-n3ncc4cc(F)c(O)c(F)c43)cc2)CC1 [Compound 20.17, 5,7-Difluoro-1-(4-(4-(hydroxymethyl)-4-methylpiperidin-1-yl)phenyl)-1H-indazol-6-ol]
< 0.1 |  | COC1(C)CN(c2ccc(-n3ncc4cc(F)c(O)c(F)c43)cc2)C1 [Compound 20.19, 5,7-Difluoro-1-(4-(3-methoxy-3-methylazetidin-1-yl)phenyl)-1H-indazol-6-ol]
< 0.1 |  | COC1(C)CCN(c2ccc(-n3ncc4cc(F)c(O)c(F)c43)cc2)CC1 [Compound 20.20, 5,7-Difluoro-1-(4-(4-methoxy-4-methylpiperidin-1-yl)phenyl)-1H-indazol-6-ol]
0.1 to 1 |  | CS(=O)(=O)N1CC2(CCN(c3ccc(-n4ncc5cc(F)c(O)c(F)c54)cc3)CC2)C1 [Compound 20.21, 5,7-Difluoro-1-(4-(2-(methylsulfonyl)-2,7-diazaspiro[3.5]nonan-7-yl)phenyl)-1H-indazol-6-ol]
0.1 to 1 |  | CS(=O)(=O)N1CCC2(CC1)CN(c1ccc(-n3ncc4cc(F)c(O)c(F)c43)cc1)C2 [Compound 20.22, 5,7-Difluoro-1-(4-(7-(methylsulfonyl)-2,7-diazaspiro[3.5]nonan-2-yl)phenyl)-1H-indazol-6-ol]
0.1 to 1 |  | CS(=O)(=O)N1CC2(CN(c3ccc(-n4ncc5cc(F)c(O)c(F)c54)cc3)C2)C1 [Compound 20.23, 5,7-Difluoro-1-(4-(6-(methylsulfonyl)-2,6-diazaspiro[3.3]heptan-2-yl)phenyl)-1H-indazol-6-ol]
< 0.1 |  | N#CC1CCN(c2ccc(-n3ncc4cc(F)c(O)c(F)c43)cc2)CC1 [Compound 22, 1-(4-(5,7-Difluoro-6-hydroxy-1H-indazol-1-yl)phenyl)piperidine-4-carbonitrile]
0.1 to 1 |  | CS(=O)(=O)C1CN(c2ccc(-n3ncc4cc(F)c(O)c(F)c43)cc2)C1 [Compound 22.1, 5,7-Difluoro-1-(4-(3-(methylsulfonyl)azetidin-1-yl)phenyl)-1H-indazol-6-ol]
0.1 to 1 |  | CS(=O)(=O)C1CCN(c2ccc(-n3ncc4cc(F)c(O)c(F)c43)cc2)C1 (centres unmarked) [Compound 22.2, 5,7-Difluoro-1-(4-(3-(methylsulfonyl)pyrrolidin-1-yl)phenyl)-1H-indazol-6-ol]
0.1 to 1 |  | CS(=O)(=O)C1CCN(c2ccc(-n3ncc4cc(F)c(O)c(F)c43)cc2)CC1 [Compound 22.3, 5,7-Difluoro-1-(4-(4-(methylsulfonyl)piperidin-1-yl)phenyl)-1H-indazol-6-ol]
< 0.1 |  | COC1CCN(c2ccc(-n3ncc4cc(F)c(O)c(F)c43)cc2)CC1 [Compound 22.4, 5,7-Difluoro-1-(4-(4-methoxypiperidin-1-yl)phenyl)-1H-indazol-6-ol]
< 0.1 |  | COC1CCN(c2ccc(-n3ncc4cc(F)c(O)c(F)c43)cc2)C1 (centres unmarked) [Compound 22.5, 5,7-Difluoro-1-(4-(3-methoxypyrrolidin-1-yl)phenyl)-1H-indazol-6-ol]
< 0.1 |  | CC1(C)CCN(c2ccc(-n3ncc4cc(F)c(O)c(F)c43)cc2)CC1 [Compound 23, 1-(4-(4,4-Dimethylpiperidin-1-yl)phenyl)-5,7-difluoro-1H-indazol-6-ol]
0.1 to 1 |  | Oc1c(F)cc2cnn(-c3ccc(N4CCC(O)CC4)cc3)c2c1F [Compound 23.1, 5,7-Difluoro-1-(4-(4-hydroxypiperidin-1-yl)phenyl)-1H-indazol-6-ol]
< 0.1 |  | Oc1c(F)cc2cnn(-c3ccc(N4CCCCC4)cc3)c2c1F [Compound 23.2, 5,7-Difluoro-1-(4-(piperidin-1-yl)phenyl)-1H-indazol-6-ol]
0.1 to 1 |  | Oc1c(F)cc2cnn(-c3ccc(N4CCOCC4)cc3)c2c1F [Compound 23.3, 5,7-Difluoro-1-(4-morpholinophenyl)-1H-indazol-6-ol]
< 0.1 |  | Oc1c(F)cc2cnn(-c3ccc(N4CCSCC4)cc3)c2c1F [Compound 23.4, 5,7-Difluoro-1-(4-thiomorpholinophenyl)-1H-indazol-6-ol]
0.1 to 1 |  | O=S1(=O)CCN(c2ccc(-n3ncc4cc(F)c(O)c(F)c43)cc2)CC1 [Compound 23.5, 4-(4-(5,7-Difluoro-6-hydroxy-1H-indazol-1-yl)phenyl)thiomorpholine 1,1-dioxide]
0.1 to 1 |  | CC1(C)CN(S(C)(=O)=O)CCN1c1ccc(-n2ncc3cc(F)c(O)c(F)c32)cc1 [Compound 23.6, 1-(4-(2,2-Dimethyl-4-(methylsulfonyl)piperazin-1-yl)phenyl)-5,7-difluoro-1H-indazol-6-ol]
0.1 to 1 |  | CCS(=O)(=O)N1CCN(c2ccc(-n3ncc4cc(F)c(O)c(F)c43)cc2)CC1 [Compound 23.8, 1-(4-(4-(Ethylsulfonyl)piperazin-1-yl)phenyl)-5,7-difluoro-1H-indazol-6-ol]
0.1 to 1 |  | CC(C)S(=O)(=O)N1CCN(c2ccc(-n3ncc4cc(F)c(O)c(F)c43)cc2)CC1 [Compound 23.9, 5,7-Difluoro-1-(4-(4-(isopropylsulfonyl)piperazin-1-yl)phenyl)-1H-indazol-6-ol]
< 0.1 |  | Oc1c(F)cc2cnn(-c3ccc(N4CCCC4)cc3)c2c1F [Compound 23.10, 5,7-Difluoro-1-(4-(pyrrolidin-1-yl)phenyl)-1H-indazol-6-ol]

Further lines, the compound ahead of its results:

Structure (SMILES) | IC50 [µM] | inhibition at 10 µM [%]
COCC1(C)CCN(c2ccc(-n3ncc4cc(F)c(O)c(F)c43)cc2)CC1 [Compound 20.18, 5,7-Difluoro-1-(4-(4-(methoxymethyl)-4-methylpiperidin-1-yl)phenyl)-1H-indazol-6-ol] | < 0.1 | 
CC1(C)CCN(c2ccc(-n3nnc4cc(F)c(O)c(F)c43)cc2)CC1 [Compound 21, 1-(4-(4,4-Dimethylpiperidin-1-yl)phenyl)-5,7-difluoro-1H-benzo[d][1,2,3]triazol-6-ol] | < 0.1 | 
CS(=O)(=O)NC1CN(c2ccc(-n3ncc4cc(F)c(O)cc43)cc2)C1 [Compound 21.1, N-(1-(4-(5-Fluoro-6-hydroxy-1H-indazol-1-yl)phenyl)azetidin-3-yl)methanesulfonamide] | 1 to 30 | 
CS(=O)(=O)N1CCN(c2ccc(-n3ncc4cc(F)c(O)cc43)cc2)CC1 [Compound 21.2, 5-Fluoro-1-(4-(4-(methylsulfonyl)piperazin-1-yl)phenyl)-1H-indazol-6-ol] | 1 to 30 | 
CS(=O)(=O)N1CCN(c2ccc(-n3nnc4cc(F)c(O)c(F)c43)cc2)CC1 [Compound 21.3, 5,7-Difluoro-1-(4-(4-(methylsulfonyl)piperazin-1-yl)phenyl)-1H-benzo[d][1,2,3]triazol-6-ol] | < 0.1 | 
CS(=O)(=O)N1CCN(c2ccc(-n3cnc4cc(F)c(O)c(F)c43)cc2)CC1 [Compound 21.4, 5,7-Difluoro-1-(4-(4-(methylsulfonyl)piperazin-1-yl)phenyl)-1H-benzo[d]imidazol-6-ol] | 0.1 to 1 | 
CC1(C)CCN(c2ccc(-n3cnc4cc(F)c(O)c(F)c43)cc2)CC1 [Compound 21.5, 1-(4-(4,4-Dimethylpiperidin-1-yl)phenyl)-5,7-difluoro-1H-benzo[d]imidazol-6-ol] | < 0.1 | 
Cn1c(=O)n(-c2ccc(N3CCC(C)(C)CC3)cc2)c2c(F)c(O)c(F)cc21 [Compound 21.6, 3-(4-(4,4-Dimethylpiperidin-1-yl)phenyl)-4,6-difluoro-5-hydroxy-1-methyl-1H-benzo[d]imidazol-2(3H)-one] | < 0.1 | 
CC1(C)CCN(c2ccc(-n3nnc4cc(F)c(O)cc43)cc2)CC1 [Compound 21.7, 1-(4-(4,4-Dimethylpiperidin-1-yl)phenyl)-5-fluoro-1H-benzo[d][1,2,3]triazol-6-ol] | < 0.1 | 
Cc1nc2cc(F)c(O)c(F)c2n1-c1ccc(N2CCC(C)(C)CC2)cc1 [Compound 21.8, 1-(4-(4,4-Dimethylpiperidin-1-yl)phenyl)-5,7-difluoro-2-methyl-1H-benzo[d]imidazol-6-ol] |  | 35
CC1(C)CCN(c2ccc(-n3c(Cl)nc4cc(F)c(O)c(F)c43)cc2)CC1 [Compound 21.9, 2-Chloro-1-(4-(4,4-dimethylpiperidin-1-yl)phenyl)-5,7-difluoro-1H-benzo[d]imidazol-6-ol] | 0.1 to 1 | 
CC1(C)CCN(c2ccc(-n3cnc4cc(F)c(O)cc43)cc2)CC1 [Compound 21.10, 1-(4-(4,4-Dimethylpiperidin-1-yl)phenyl)-5-fluoro-1H-benzo[d]imidazol-6-ol] |  | 35
CS(=O)(=O)N1CCN(c2ccc(-n3ncc4ccc(O)c(F)c43)cc2)CC1 [Compound 21.11, 7-Fluoro-1-(4-(4-(methylsulfonyl)piperazin-1-yl)phenyl)-1H-indazol-6-ol] | 0.1 to 1 | 
CC1(C)CCN(c2ccc(-n3c(=O)n(CO)c4cc(F)c(O)c(F)c43)cc2)CC1 [Compound 21.12, 3-(4-(4,4-Dimethylpiperidin-1-yl)phenyl)-4,6-difluoro-5-hydroxy-1-(hydroxymethyl)-1H-benzo[d]imidazol-2(3H)-one] | < 0.1 | 
CC(C)n1c(=O)n(-c2ccc(N3CCC(C)(C)CC3)cc2)c2c(F)c(O)c(F)cc21 [Compound 21.13, 3-(4-(4,4-Dimethylpiperidin-1-yl)phenyl)-4,6-difluoro-5-hydroxy-1-isopropyl-1H-benzo[d]imidazol-2(3H)-one] | 0.1 to 1 | 
CS(=O)(=O)N1CCN(c2ccc(-n3ncc4cc(F)c(O)c(F)c43)cc2F)CC1 [Compound 23.7, 5,7-Difluoro-1-(3-fluoro-4-(4-(methylsulfonyl)piperazin-1-yl)phenyl)-1H-indazol-6-ol] | 0.1 to 1 | 
